Experimental data as given in patent publication US6906205B2, “Spiro and dispiro 1,2,4-trioxolane antimalarials” (Medicines for Malaria Venture MMV, priority 2002, dated 2005).
Values after ≈ are worked out from the molar mass of the structure shown.

Assays:
[1] = test system: P. falciparum NF54 strain (sensitive to standard antimalarials); assay: semiautomated microdilution assay, [3H]-hypoxanthine incorporation, NF54 strain; type: cell-based, Plasmodium falciparum; conditions: NF54 strain, 72 h incubation
Outline: (§1)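 Intraerythrocytic stages from unsynchronised stock cultures are exposed to test compounds in a semiautomated microdilution format, and fifty percent inhibitory concentrations are then fitted by logit regression.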

[2] = test system: P. falciparum K1 strain (Thailand resistant to chloroquine); assay: semiautomated microdilution assay, [3H]-hypoxanthine incorporation, K1 strain; type: cell-based, Plasmodium falciparum; conditions: K1 strain, 72 h incubation
Outline: as §1

[3] = test system: Schistosoma mansoni 21-day-old schistosomules; assay: effect on 21-day-old schistosomules in mice; type: in vivo; conditions: single 200 mg/kg per os, female mice
Procedure: All groups were killed 4 weeks after treatment and the liver and intestine were removed and separated. The liver and intestine were compressed and alive male and female worms could be seen and counted. The effect of the compounds was evaluated by mean total and female worm burden.

[4] = test system: ANKA strain of P. berghei; assay: single dose STI in vivo screen in infected mice; set-up: species or system Plasmodium berghei; conditions: for Activity (%) po / Activity (%) sc / Activity (%) SSVpo: percent reduction in parasitemia day 3 post-infection, mice; for Activity (%) po / Survival (days) po: single 10 mg/kg po in 3% ethanol and 7% Tween 80; for Activity (%) sc / Survival (days) sc: single 10 mg/kg sc in 3% ethanol and 7% Tween 80; for Activity (%) SSVpo: single po dose in standard suspending vehicle (SSV); for Survival (days) po / Survival (days) sc / Survival (days) SSVpo: untreated control 5.6 ± 0.3; for Survival (days) SSVpo: single po dose in SSV
Outline: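 Groups of 3-5 Moro SPF or NMRI mice infected with the ANKA strain of P. berghei received a single dose of trioxolane on day one post-infection. The compound was given in 3% ethanol and 7% Tween 80 or in SSV (0.5% w/v CMC, 0.5% v/v benzyl alcohol, 0.4% v/v Tween 80, 0.9% w/v sodium chloride in water). Antimalarial activity was scored as percent reduction in parasitemia on day three and as survival time versus untreated controls. Survival to day 30 counted as cure.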

[5] = test system: Schistosoma mansoni adult schistosomes (49-day-old); assay: effect on adult schistosomes (49-day-old) in mice; type: in vivo; conditions: for % reduction of adult worms growth at day 49 after per os application of 400 mg/kg, TWR (%) / adult worms at day 49, per os 400 mg/kg, DEAD WORM (%): single 400 mg/kg per os; for Tox (mice): infected mice
Procedure: Mice were infected with 100 Schistosoma mansoni cercariae […]. Each group was treated per os with OZ compounds at single doses of 200, 400, and 600 mg/kg. […] All groups were killed 4 weeks after treatment and the liver and intestine were removed and separated. The liver and intestine were compressed and alive male and female worms could be seen and counted.

Row | Compound | IC50 (ng/ml) NF54 [1] | IC50 (ng/ml) K1 [2] | % reduction of schistosomule growth at day 21 after per os application of 200 mg/kg, FWR (%) [3] | % reduction of schistosomule growth at day 21 after per os application of 200 mg/kg, TWR (%) [3] | Activity (%) po [4] | Activity (%) sc [4] | Activity (%) SSVpo [4] | Survival (days) po [4] | Survival (days) sc [4] | Survival (days) SSVpo [4] | % reduction of adult worms growth at day 49 after per os application of 400 mg/kg, TWR (%) [5] | adult worms at day 49, per os 400 mg/kg, DEAD WORM (%) [5] | Activity (%) po ([4]; 10 mg/kg) | Activity (%) sc ([4]; 10 mg/kg) | Survival (days) sc ([4]; 10 mg/kg) | Survival (days) po ([4]; 10 mg/kg) | Tox (mice) ([5]; 200 mg/kg per os) | Tox (mice) ([5]; 400 mg/kg per os) | % reduction of adult worms growth at day 49 after per os application of 200 mg/kg, TWR (%) ([5]; single 200 mg/kg per os) | adult worms at day 49, per os 200 mg/kg, DEAD WORM (%) ([5]; single 200 mg/kg per os)
1 | ON=C1CCC2(CC1)OOC1(O2)C2CC3CC(C2)CC1C3 (centres unmarked) [OZ16] | 0.67 ng/mL (≈ 2.28 nM) | 0.45 ng/mL (≈ 1.53 nM) | 77% | 78% | 79% | 99.2% | 83% | 6.7 days | 7.3 days | 6.7 days | – | – | – | – | – | – | – | – | – | –
2 | c1ccc(CON=C2CCC3(CC2)OOC2(O3)C3CC4CC(C3)CC2C4)cc1 (centres unmarked) [OZ19] | 2.7 ng/mL (≈ 7.04 nM) | 1.3 ng/mL (≈ 3.39 nM) | 74% | 77% | 98.3% | 99.98% | 56% | 7.5 days | 13.4 days | 6.0 days | – | – | – | – | – | – | – | – | – | –
3 | C1CC2(CCO1)OOC1(O2)C2CC3CC(C2)CC1C3 (centres unmarked) [OZ22] | 0.56 ng/mL (≈ 2.1 nM) | 0.32 ng/mL (≈ 1.2 nM) | 76% | 75% | 35% | 99.6% | – | 6.0 days | 7.7 days | – | – | – | – | – | – | – | – | – | – | –
4 | CC1(C)CC(C)(C)CC2(C1)OOC1(O2)C2CC3CC(C2)CC1C3 (centres unmarked) [OZ26] | 5.0 ng/mL (≈ 15.6 nM) | 3.1 ng/mL (≈ 9.67 nM) | 40% | 37% | 88% | 99.9% | – | 7.0 days | 9.7 days | – | – | – | – | – | – | – | – | – | – | –
5 | CC(C)(C)ON=C1CCC2(CC1)OOC1(O2)C2CC3CC(C2)CC1C3 (centres unmarked) [OZ28] | 2.5 ng/mL (≈ 7.15 nM) | 2.1 ng/mL (≈ 6.01 nM) | 87% | 81% | 93% | 99.97% | – | 7.3 days | 12.3 days | – | – | – | – | – | – | – | – | – | – | –
6 | O=C(NN=C1CCC2(CC1)OOC1(O2)C2CC3CC(C2)CC1C3)Nc1ccccc1 (centres unmarked) [OZ30] | 1.3 ng/mL (≈ 3.16 nM) | 0.65 ng/mL (≈ 1.58 nM) | 12% | 16% | 0% | 86% | – | 5.3 days | 9.0 days | – | – | – | – | – | – | – | – | – | – | –
7 | CC1(C)CCC2(CC1)OOC1(O2)C2CC3CC(C2)CC1C3 (centres unmarked) [OZ33] | 3.5 ng/mL (≈ 12 nM) | 2.3 ng/mL (≈ 7.87 nM) | 14% | 28% | 80% | 99.97% | – | 6.7 days | 11.7 days | – | – | – | – | – | – | – | – | – | – | –
8 | CC(C)(C)OC(=O)N1CCC2(CC1)OOC1(O2)C2CC3CC(C2)CC1C3 (centres unmarked) [OZ35] | 2.1 ng/mL (≈ 5.75 nM) | 1.7 ng/mL (≈ 4.65 nM) | 63% | 73% | 74% | 99.98% | – | 6.3 days | 9.3 days | – | – | – | – | – | – | – | – | – | – | –
9 | CON=C1CC2CC3(CC2C1)OOC1(O3)C2CC3CC(C2)CC1C3 (centres unmarked) [OZ37] | – | – | 53% | 63% | 83% | 99.98% | – | 6.7 days | 13 days | – | – | – | – | – | – | – | – | – | – | –
10 | CC(C)(C)CC(=O)N1CCC2(CC1)OOC1(O2)C2CC3CC(C2)CC1C3 (centres unmarked) [OZ111] | – | 0.92 ng/mL (≈ 2.53 nM) | 68% | 71% | 98% | 99.94% | 79% | 7.7 days | 8.3 days | 6.3 days | – | – | – | – | – | – | – | – | – | –
11 | CCN(CC)CC[C@H]1CC[C@]2(CC1)OOC1(O2)C2CC3CC(C2)CC1C3 (some centres unmarked) [OZ126] | 0.50 ng/mL (≈ 1.38 nM) | 0.20 ng/mL (≈ 0.55 nM) | – | – | 55% | 99.44% | 72% | 7.0 days | 8.5 days | 6.7 days | 0% | 9% | – | – | – | – | – | – | – | –
12 | O=C1COC2(CCC3(CC2)OOC2(O3)C3CC4CC(C3)CC2C4)OC1 (centres unmarked) [OZ130] | 0.94 ng/mL (≈ 2.68 nM) | 0.62 ng/mL (≈ 1.77 nM) | – | – | 98.8% | 98.6% | 98.9% | 9.0 days | 7.3 days | 8.0 days | 0% | 8% | – | – | – | – | – | – | – | –
13 | O=C([C@H]1CC[C@]2(CC1)OOC1(O2)C2CC3CC(C2)CC1C3)N1CCN(c2ccccc2)CC1 (some centres unmarked) [OZ140] | 8.2 ng/mL (≈ 18.1 nM) | 5.9 ng/mL (≈ 13 nM) | – | – | 0% | 60% | 8% | 6.0 days | 7.0 days | 6.3 days | 0% | 3% | – | – | – | – | – | – | – | –
14 | O=C(OC[C@H]1CC[C@]2(CC1)OOC1(O2)C2CC3CC(C2)CC1C3)N1CCN(c2ccccc2)CC1 (some centres unmarked) [OZ148] | 16 ng/mL (≈ 33.2 nM) | 17 ng/mL (≈ 35.2 nM) | – | – | 38% | 21% | 58% | 7.3 days | 6.3 days | 7.7 days | 25% | 0% | – | – | – | – | – | – | – | –
15 | OC12CC3CC(C1)C1(OOC4(CCC5(CC4)OCCO5)O1)C(C3)C2 (centres unmarked) [OZ153] | 19 ng/mL (≈ 56.1 nM) | 7.7 ng/mL (≈ 22.8 nM) | – | – | – | – | 23% | 6.3 days | – | 7.0 days | No alive/dead worm* | – | 15% | 20% | 6.3 days | – | – | – | – | –
16 | CC1(C)COC(c2ccc([C@H]3CC[C@]4(CC3)OOC3(O4)C4CC5CC(C4)CC3C5)cc2)=N1 (some centres unmarked) [OZ154] | 6.1 ng/mL (≈ 13.9 nM) | 5.0 ng/mL (≈ 11.4 nM) | – | – | – | – | 81% | – | – | 8.7 days | 58% | 0% | 99.74% | 59% | 7.7 days | 14.7 days | – | – | – | –
17 | O=C(C[C@H]1CC[C@]2(CC1)OOC1(O2)C2CC3CC(C2)CC1C3)N1CCOCC1 (some centres unmarked) [OZ189] | 3.0 ng/mL (≈ 7.66 nM) | 1.7 ng/mL (≈ 4.34 nM) | – | – | 95% | 98% | 99.79% | 9.3 days | 10.7 days | 9.0 days | – | – | – | – | – | – | *Tox: 2/3 | Tox: 3/3 ^ | 0% | 17%
18 | C1=C(c2ccccc2)CCC2(C1)OOC1(O2)C2CC3CC(C2)CC1C3 (centres unmarked) [OZ226] | 4.0/4.0 ng/ml | 4.0/4.0 ng/ml | – | – | 0% | 99.92% | 0% | 5.0 days | 11.0 days | 5.3 days | 52% | 0% | – | – | – | – | – | – | – | –
